From US12692264B2, “Pyrimidine or pyridine derivative, preparation method therefor, and application thereof in pharmacy” (ABBISKO THERAPEUTICS CO., LTD., priority 2021, dated 2026)
pIC50: −log10 of the molar value.

Legend:
Assay type in all cases: cell-based
[1] = molecular target: Ba/F3 EGFR-V769_D770insASV (Homo sapiens, UniProt P00533, DUP767-769, cells depend on it); assay: Cell proliferation study (CellTiter-Glo, 72 hrs), Ba/F3 EGFR-V769_D770insASV; settings: CTG, * = average of multiple measurements, read-out: Ba/F3 EGFR-V769_D770insASV IC50
Protocol: (§1) (I) Reagents and Materials
(§2) • Fetal bovine serum FBS (GBICO, Cat #10099-141); • CellTiter-Glo® luminescent cell viability assay kit (Promega, Cat #G7572); • Black transparent flat-bottom 96-well plate (Corning®, Cat #3603). (II) Instruments • SpectraMax multi-label microplate reader MD, 2104-0010A; • Carbon dioxide incubator, Thermo Scientific 3100 series; • Biological safety cabinet, Thermo Scientific, 1300 series model A2; • Inverted microscope, Olympus, CKX41SF; • Siemens refrigerator KK25E76T1. (III) Cell Lines and Culture Conditions
(§3) (IV) Experimental Procedures 1. Cell Culture and Inoculation: • (1) Cells in the logarithmic growth phase were harvested and counted using a […]. The cell viability was determined by the trypan blue dye exclusion method to ensure cell viability above 90%. • (2) The cell concentration was adjusted to reach a desired final density; 90 μL of cell suspension was added to a 96-well plate. • (3) The cells were incubated overnight in the 96-well plate at 37° C., 5% CO2 and with 95% humidity. 2. T0 Benchmark Data: • (1) 10 μL of PBS was added to each well of the TO plate containing the cells. • (2) The CTG reagent was thawed and the cell plate was equilibrated to room temperature for 30 min. • (3) An equal volume of CTG solution was added to each well. • (4) The cells were lysed by shaking on an orbital shaker for 5 min. • (5) The cell plate was left to stand at room temperature for 20 min to stabilize the fluorescence signal. • (6) The fluorescence signal values of TO were read. 3. Dilution and Addition of Compounds • (1) According to the compound information table, a corresponding volume of DMSO was added to the corresponding compound powder to prepare a 10 mM stock solution. • (2) A 1000-fold, 3.16-fold-diluted compound solution was prepared. • (3) The 1000× diluted compound solution was diluted 100-fold with PBS to prepare a 10-fold compound solution with a maximum concentration of 10 μM, including 9 concentrations, with 3.16-fold dilution, and 10 μL of the medicament solution was added to each well of the 96-well plate to seed the cells. Triplicate wells were set for each compound concentration, with a final concentration of DMSO being 0.1%. • (4) The cells were placed in the 96-well plate containing the medicament at 37° C., 5% CO2 and with 95% humidity, and cultured for 72 hrs before CTG analysis. 4. Fluorescence Signal Reading • (1) The CTG reagent was thawed and the cell plate was equilibrated to room temperature for 30 min. • (2) An equal volume of CTG solution was added to each well. • (3) The cells were lysed by shaking on an orbital shaker for 5 min. • (4) The cell plate was left to stand at room temperature for 20 min to stabilize the fluorescence signal. • (5) The fluorescence values were read. 5. Data Processing
(§4) Data were analyzed using GraphPad Prism 7.0 software and fitted data were regressed using non-linear S-curves to obtain dose-response curves from which IC50 values (in nM) were calculated.

A431 (EGFR-WT) = assay: Cell proliferation study (CellTiter-Glo, 72 hrs), A431; settings: Homo sapiens, A-431, A431 cells, CTG, * = average of multiple measurements
Protocol: as §1, §2, §3, §4

[2] = molecular target: Ba/F3 EGFR-D770-N771ins_SVD (Homo sapiens, UniProt P00533, DUP768-770, cells depend on it); assay: Cell proliferation study (CellTiter-Glo, 72 hrs), Ba/F3 EGFR-D770-N771ins_SVD; settings: CTG, * = average of multiple measurements, read-out: Ba/F3 EGFR-D770-N771ins_SVD IC50
Outline: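 Cells were seeded overnight, then exposed for 72 hrs at 37 °C, 5% CO2 to 9 concentrations in 3.16-fold steps, 0.1% DMSO final, triplicate wells. Viability was read by CellTiter-Glo luminescence, with a T0 plate read at dosing. IC50 came from nonlinear sigmoidal dose-response fits.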

Chain of Ba/F3 EGFR-V769_D770insASV (P00533 with tags, fused parts or gaps DUP767-769): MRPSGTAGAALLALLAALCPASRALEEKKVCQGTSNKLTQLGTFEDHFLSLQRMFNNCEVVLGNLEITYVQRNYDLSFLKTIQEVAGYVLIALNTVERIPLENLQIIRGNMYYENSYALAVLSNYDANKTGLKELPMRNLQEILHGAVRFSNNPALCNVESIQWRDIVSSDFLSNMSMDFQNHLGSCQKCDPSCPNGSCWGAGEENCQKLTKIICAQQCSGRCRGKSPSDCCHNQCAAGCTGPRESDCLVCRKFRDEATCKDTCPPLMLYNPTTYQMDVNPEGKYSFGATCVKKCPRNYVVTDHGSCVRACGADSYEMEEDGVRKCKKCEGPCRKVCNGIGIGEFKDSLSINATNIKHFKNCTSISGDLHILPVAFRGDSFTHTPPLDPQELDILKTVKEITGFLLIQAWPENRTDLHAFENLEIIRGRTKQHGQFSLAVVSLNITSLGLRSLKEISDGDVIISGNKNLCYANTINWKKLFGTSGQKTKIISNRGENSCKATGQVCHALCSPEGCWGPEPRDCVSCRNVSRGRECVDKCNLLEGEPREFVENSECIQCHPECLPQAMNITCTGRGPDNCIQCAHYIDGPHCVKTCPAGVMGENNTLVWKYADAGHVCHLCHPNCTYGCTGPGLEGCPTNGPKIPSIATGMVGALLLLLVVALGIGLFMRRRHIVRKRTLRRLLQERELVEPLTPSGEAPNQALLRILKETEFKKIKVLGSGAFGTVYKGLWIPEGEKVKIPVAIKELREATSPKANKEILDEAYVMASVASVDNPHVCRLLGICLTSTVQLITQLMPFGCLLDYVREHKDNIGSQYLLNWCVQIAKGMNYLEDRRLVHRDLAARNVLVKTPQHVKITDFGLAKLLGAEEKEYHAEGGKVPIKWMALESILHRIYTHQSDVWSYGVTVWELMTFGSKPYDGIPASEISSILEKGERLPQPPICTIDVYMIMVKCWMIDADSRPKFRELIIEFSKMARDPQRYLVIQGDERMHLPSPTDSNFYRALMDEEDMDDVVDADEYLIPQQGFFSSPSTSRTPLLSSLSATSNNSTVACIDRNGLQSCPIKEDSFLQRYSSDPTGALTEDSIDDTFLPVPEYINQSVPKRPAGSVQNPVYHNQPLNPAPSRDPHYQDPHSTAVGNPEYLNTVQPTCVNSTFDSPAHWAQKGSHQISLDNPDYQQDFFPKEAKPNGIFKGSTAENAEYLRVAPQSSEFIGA
Chain of Ba/F3 EGFR-D770-N771ins_SVD (P00533 with tags, fused parts or gaps DUP768-770): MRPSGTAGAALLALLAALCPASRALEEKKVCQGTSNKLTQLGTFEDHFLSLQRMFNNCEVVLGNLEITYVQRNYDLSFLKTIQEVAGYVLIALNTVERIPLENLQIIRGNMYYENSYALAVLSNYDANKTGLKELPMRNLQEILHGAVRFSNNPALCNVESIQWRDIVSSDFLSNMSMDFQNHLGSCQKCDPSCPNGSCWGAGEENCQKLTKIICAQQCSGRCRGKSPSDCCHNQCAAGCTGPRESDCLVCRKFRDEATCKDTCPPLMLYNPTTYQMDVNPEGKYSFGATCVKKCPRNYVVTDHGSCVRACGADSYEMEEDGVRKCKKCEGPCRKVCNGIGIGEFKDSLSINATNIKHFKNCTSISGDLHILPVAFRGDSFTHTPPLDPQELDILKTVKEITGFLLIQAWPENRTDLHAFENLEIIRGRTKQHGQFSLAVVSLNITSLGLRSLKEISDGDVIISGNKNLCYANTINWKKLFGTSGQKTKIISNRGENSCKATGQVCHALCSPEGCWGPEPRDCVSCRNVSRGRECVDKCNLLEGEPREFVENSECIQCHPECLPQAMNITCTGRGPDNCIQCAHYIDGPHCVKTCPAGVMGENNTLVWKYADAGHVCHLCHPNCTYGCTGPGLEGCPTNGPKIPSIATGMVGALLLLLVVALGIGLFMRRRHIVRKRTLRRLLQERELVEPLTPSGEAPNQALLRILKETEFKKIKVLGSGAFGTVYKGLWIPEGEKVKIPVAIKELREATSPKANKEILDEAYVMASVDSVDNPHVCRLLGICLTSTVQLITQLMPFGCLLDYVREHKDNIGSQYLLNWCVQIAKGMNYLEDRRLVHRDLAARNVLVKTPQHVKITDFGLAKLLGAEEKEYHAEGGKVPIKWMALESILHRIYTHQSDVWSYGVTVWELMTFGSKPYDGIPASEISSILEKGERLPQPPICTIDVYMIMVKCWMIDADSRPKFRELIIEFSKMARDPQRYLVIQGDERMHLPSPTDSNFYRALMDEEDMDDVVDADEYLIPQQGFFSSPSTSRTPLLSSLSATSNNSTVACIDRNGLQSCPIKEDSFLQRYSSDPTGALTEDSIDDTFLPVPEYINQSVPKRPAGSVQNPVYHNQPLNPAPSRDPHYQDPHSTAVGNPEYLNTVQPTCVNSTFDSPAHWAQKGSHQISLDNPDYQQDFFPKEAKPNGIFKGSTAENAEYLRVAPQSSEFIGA

Row | SMILES | GI50 [1] | pIC50 (A431 (EGFR-WT)) | GI50 [2]
1 | C=CC(=O)Nc1cc(Nc2ncc(C(=O)OC(C)C)c(N3CC4(CC4)c4nc(C)ccc43)n2)c(OC)cc1N1CC[C@@H](N(C)C)C1 [Example 26, isopropyl (R)-2-((5-acrylamido-4-(3-(dimethyl-amino)pyrrolidin-1-yl)-2-methoxy-phenyl)amino)-4-(5′-methyl-spiro(cyclopropane-1,3′-pyrrolo[3,2-b]pyridin)-1′(2′H)-yl)pyrimidine-5-carboxylate] | 52.8 nM | 6.44 | 29.7 nM
2 | C=CC(=O)Nc1cc(Nc2ncc(C(=O)OC(C)C)c(N3CC4(CC4)c4ncccc43)n2)c(OC)cc1N(C)CCN(C)C [Example 21, isopropyl 2-((5-acrylamido-4-((2-(dimethylami-no)ethyl)(methyl)amino)-2-methoxy-phenyl)amino)-4-(spiro(cyclopropane-1,3′-pyrrolo[3,2-b]pyridin)-1′(2′H)-yl)pyrimidine-5-carboxylate] | 56.8 nM | 6.39 | 24.6 nM
3 | C=CC(=O)Nc1cc(Nc2ncc(C(=O)OC(C)C)c(N3CC4(CC4)c4nc(C)ccc43)n2)c(OC)cc1N(C)CCNC [Example 25, isopropyl 2-((5-acrylamido-2-methoxy-4-(methyl(2-(methylamino)ethyl)ami-no)phenyl)amino)-4-(5′-methyl-spiro(cyclopropane-1,3′-pyrrolo[3,2-b]pyridin)-1′(2′H)-yl)pyrimidine-5-carboxylate] | 53.8 nM | 6.65 | 34.2 nM
4 | C=CC(=O)Nc1cc(Nc2ncc(C(=O)OC(C)C)c(N3CC(C)(C)c4nc(C)ccc43)n2)c(O)cc1N(C)CCN(C)C [Example 54, isopropyl 2-((5-acrylamido-4-((2-(dimethylami-no)ethyl)(methyl)amino)-2-hydroxy-phenyl)amino)-4-(3,3,5-trimethyl-2,3-dihydro-1H-pyrrolo[3,2-b]pyridin-1-yl)pyrimidine-5-carboxylate] | 81.9 nM | 5.94 | 77 nM
5 | [2H]C1([2H])N(c2nc(Nc3cc(NC(=O)C=C)c(N(C)C[C@@H]4CCCN4C)cc3OC)ncc2C(=O)OC(C)C)c2ccc(C)nc2C1(C)C [Example 52, isopropyl (S)-2-((5-acrylamido-2-methoxy-4-(methyl((1-methylpyrrolidin-2-yl)methyl)amino)phenyl)amino)-4-(3,3,5-trimethyl-2,3-dihydro-1H-pyrrolo[3,2-b]pyridin-1-yl-2,2-d2)pyrimidine-5-carboxylate] | 61.9 nM | 6.73 | 24.1 nM
6 | [2H]C1([2H])N(c2nc(Nc3cc(NC(=O)C=C)c(N4CCC[C@@H]4CN(C)C)cc3OC)ncc2C(=O)OC(C)C)c2ccc(C)nc2C1(C)C [Example 48, isopropyl (R)-2-((5-acrylamido-4-(2-((dimethyl-amino)methyl)pyrrolidin-1-yl)-2-meth-oxyphenyl)amino)-4-(3,3,5-trimethyl-2,3-dihydro-1H-pyrrolo[3,2-b]pyridin-1-yl-2,2-d2)pyrimidine-5-carboxylate] | 37 nM | 8.36 | 11.1 nM
7 | C=CC(=O)Nc1cc(Nc2ncc(C(=O)OC(C)C)c(N3CC(C)(C)c4nc(C#CC)ccc43)n2)c(OC)cc1N1CC[C@@H](N(C)C)C1 [Example 74, isopropyl (R)-2-((5-acrylamido-4-(3-(dimethyl-amino)pyrrolidin-1-yl)-2-methoxy-phenyl)amino)-4-(3,3-dimethyl-5-(prop-1-yn-1-yl)-2,3-dihydro-1H-pyrrolo[3,2-b]pyridin-1-yl)pyrimidine-5-carboxylate] | 43.6 nM | 7.00 | 15.5 nM

These reach a lower GI50 [1]. Values come first.

Row | GI50 [1] | pIC50 (A431 (EGFR-WT)) | GI50 [2] | SMILES
8 | 27.9 nM | 6.09 | 36.7 nM | [2H]C1([2H])N(c2nc(Nc3cc(NC(=O)C=C)c(N4CC(N(C)C)C4)cc3OC)ncc2C(=O)OC(C)C)c2ccc(C)nc2C1(C)C [Example 50, isopropyl 2-((5-acrylamido-4-(3-(dimethylami-no)azetidin-1-yl)-2-methoxy-phenyl)amino)-4-(3,3,5-trimethyl-2,3-dihydro-1H-pyrrolo[3,2-b]pyridin-1-yl-2,2-d2)pyrimidine-5-carboxylate]
9 | 22.4 nM | 7.25 | 13.4 nM | [2H]C1([2H])N(c2nc(Nc3cc(NC(=O)C=C)c(N(C)CCN(C)C)cc3OC)ncc2C(=O)OC(C)C)c2ccc(C)nc2C1(C)C [Example 47, isopropyl 2-((5-acrylamido-4-((2-(dimethylami-no)ethyl)(methyl)amino)-2-methoxy-phenyl)amino)-4-(3,3,5-trimethyl-2,3-dihydro-1H-pyrrolo[3,2-b]pyridin-1-yl-2,2-d2)pyrimidine-5-carboxylate]
10 | 18.4 nM | 6.82 | 18.4 nM | C=CC(=O)Nc1cc(Nc2ncc(C(=O)OC(C)C)c(N3CC(C)(C)c4nc(C)ccc43)n2)c(OC)nc1N1C[C@@H](F)C[C@@H]1CN(C)C [Example 59, isopropyl 2-((5-acrylamido-6-((2R,4S)-2-((dimethylamino)methyl)-4-fluoro-pyrrolidin-1-yl)-2-methoxypyridin-3-yl)amino)-4-(3,3,5-trimethyl-2,3-dihydro-1H-pyrrolo[3,2-b]pyridin-1-yl)pyrimidine-5-carboxylate]
11 | 16 nM | 6.92 | 12.3 nM | C=CC(=O)Nc1cc(Nc2ncc(C(=O)OC(C)C)c(N3CC(C)(C)c4nc(C)ccc43)n2)c(OC)cc1N(C)C[C@H]1CCCN1C [Example 62, isopropyl (R)-2-((5-acrylamido-2-methoxy-4-(methyl((1-methylpyrrolidin-2-yl)methyl)amino)phenyl)amino)-4-(3,3,5-trimethyl-2,3-dihydro-1H-pyrrolo[3,2-b]pyridin-1-yl)pyrimidine-5-carboxylate]
12 | 16 nM | 6.55 | 13.3 nM | C=CC(=O)Nc1cc(Nc2ncc(C(=O)OC(C)C)c(N3CC(C)(C)c4nc(C)ccc43)n2)c(OC)nc1N(C)CCN(C)C [Example 29, isopropyl 2-((5-acrylamido-6-((2-(dimethylami-no)ethyl)(methyl)amino)-2-methoxy-pyridin-3-yl)amino)-4-(3,3,5-trimethyl-2,3-dihydro-1H-pyrrolo[3,2-b]pyridin-1-yl)pyrimidine-5-carboxylate]
13 | 13.8 nM | 6.25 | 23.6 nM | C=CC(=O)Nc1cc(Nc2ncc(C(=O)OC(C)C)c(N3CC(C)(C)c4ccccc43)n2)c(OC)cc1N(C)CCN(C)C [Example 85, isopropyl 2-((5-acrylamido-4-((2-(dimethylami-no)ethyl)(methyl)amino)-2-methoxy-phenyl)amino)-4-(3,3-dimethylindolin-1-yl)pyrimidine-5-carboxylate]
14 | 12.5 nM | 7.24 | 25.8 nM | C=CC(=O)Nc1cc(Nc2ncc(C(=O)OC(C)C)c(N3CC(C)(C)c4ccccc43)n2)c(OC)cc1N1C[C@@H](F)C[C@@H]1CN(C)C [Example 87, isopropyl 2-((5-acrylamido-4-((2R,4S)-2-((di-methylamino)methyl)-4-fluoro-pyrrolidin-1-yl)-2-methoxy-phenyl)amino)-4-(3,3-dimethyl-indolin-1-yl)pyrimidine-5-carboxylate]
15 | 9.2 nM | 7.68 | 15.4 nM | C=CC(=O)Nc1cc(Nc2ncc(C(=O)OC(C)C)c(N3CC(C)(C)c4ncccc43)n2)c(OC)cc1N1C[C@@H](F)C[C@@H]1CN(C)C [Example 88, isopropyl 2-((5-acrylamido-4-((2R,4S)-2-((di-methylamino)methyl)-4-fluoro-pyrrolidin-1-yl)-2-methoxy-phenyl)amino)-4-(3,3-dimethyl-2,3-dihydro-1H-pyrrolo[3,2-b]pyridin-1-yl)pyrimidine-5-carboxylate]
